Drawing on ChEMBL document CHEMBL1201862, “PubChem BioAssay data set” (2004), this text covers AC50 and IC50 for seven molecules.

The nature of assay [1]: inhibition of ARNT PAS-B/TACC3 complex formation – biochemical, AlphaScreen, cherry-picked samples, confirmation (AID 651703).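 Further: His-tagged ARNT PAS-B domain paired with GST-TACC3 E629A dimer coactivator fragment; potency of inhibitors that break up the complex and lower AlphaScreen signal.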 The format is functional, Homo sapiens. Background: Bead proximity is the source of the signal in Alpha formats.
The target in assay [2] is 26S proteasome non-ATPase regulatory subunit 14 (Homo sapiens, UniProt O00487). Briefly: inhibition of proteasome subunit RPN11 – biochemical, fluorescence polarization, uHTS hits, confirmation (AID 602368). The format is functional. (In general: Fluorescence polarisation rises when a labelled molecule tumbles more slowly, as on binding a larger partner.)
Assay [3] addresses T1, DNA repair and recombination protein RAD54-like (Homo sapiens, UniProt Q92698).
T1 sequence (Q92698 whole entry): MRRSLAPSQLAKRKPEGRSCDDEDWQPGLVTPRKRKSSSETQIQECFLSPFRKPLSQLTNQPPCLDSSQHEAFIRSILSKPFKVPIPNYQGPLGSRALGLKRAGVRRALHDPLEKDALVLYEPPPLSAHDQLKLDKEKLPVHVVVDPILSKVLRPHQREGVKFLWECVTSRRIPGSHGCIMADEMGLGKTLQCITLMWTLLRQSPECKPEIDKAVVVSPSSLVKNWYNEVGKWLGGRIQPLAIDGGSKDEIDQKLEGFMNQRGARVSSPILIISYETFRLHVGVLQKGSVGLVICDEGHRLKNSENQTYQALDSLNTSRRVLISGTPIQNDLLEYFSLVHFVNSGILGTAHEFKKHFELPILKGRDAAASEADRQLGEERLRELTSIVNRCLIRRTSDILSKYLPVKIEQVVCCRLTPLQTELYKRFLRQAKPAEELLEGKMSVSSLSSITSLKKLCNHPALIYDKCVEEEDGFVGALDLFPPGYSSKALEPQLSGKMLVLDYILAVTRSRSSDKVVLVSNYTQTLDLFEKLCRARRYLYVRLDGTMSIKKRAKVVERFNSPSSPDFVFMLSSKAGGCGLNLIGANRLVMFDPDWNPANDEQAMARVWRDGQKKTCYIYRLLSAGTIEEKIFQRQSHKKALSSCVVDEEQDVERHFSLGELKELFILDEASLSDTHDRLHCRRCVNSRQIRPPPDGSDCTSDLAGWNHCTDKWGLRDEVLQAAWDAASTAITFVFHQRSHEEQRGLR
Briefly: RAD54 Holliday junction migration blockers – biochemical, fluorescence, cherry-picked samples, dose series, confirmation (AID 651657). The format is functional.

Assay [4] deals with 72 kDa type IV collagenase (Homo sapiens, UniProt P08253). In words: Dose Response validation of uHTS RPN11 inhibitor hits using a MMP-2 Fluorescence assay. The format is functional.
For assay [5], the target named is T2, DNA repair protein RAD52 homolog (Homo sapiens, UniProt P43351).
T2 sequence (P43351 whole entry): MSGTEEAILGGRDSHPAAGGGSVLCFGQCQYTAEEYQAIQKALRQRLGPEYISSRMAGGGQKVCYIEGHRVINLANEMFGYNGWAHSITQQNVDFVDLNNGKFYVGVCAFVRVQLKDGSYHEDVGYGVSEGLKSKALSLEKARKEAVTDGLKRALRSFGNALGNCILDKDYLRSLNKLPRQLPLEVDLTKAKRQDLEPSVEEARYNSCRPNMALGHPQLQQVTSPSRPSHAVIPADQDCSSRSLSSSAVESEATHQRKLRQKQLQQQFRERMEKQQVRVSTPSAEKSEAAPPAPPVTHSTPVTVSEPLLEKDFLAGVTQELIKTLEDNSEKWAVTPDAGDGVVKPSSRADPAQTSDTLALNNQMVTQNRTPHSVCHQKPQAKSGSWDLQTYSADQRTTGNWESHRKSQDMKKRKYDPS
Type of assay: functional, biochemical.

For the next assay, the target named is Prothrombin (Bos taurus, UniProt P00735). Briefly: thrombin protease inhibitors – biochemical, fluorescence polarization, uHTS hits, dose response (AID 602369). Type of assay: functional.
Assay [6] is described as follows: cytotoxicity toward MDA-MB-231 breast cancer cells – cell-based, CellTiter-Glo luminescence, cherry-pick, cytotoxicity control for RAD54 inhibitor project, dose response (AID 651692). The format is functional. For orientation: Cellular ATP, detected with luciferase, serves as a proxy for viable cell number.
Assay [7] has as its target T3, Interleukin-8 (Homo sapiens, UniProt P10145).
T3 sequence (P10145 whole entry): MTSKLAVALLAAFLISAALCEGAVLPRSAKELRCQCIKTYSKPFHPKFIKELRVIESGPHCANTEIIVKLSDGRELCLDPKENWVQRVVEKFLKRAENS
In words: Dose Response confirmation of uHTS small molecule hits for cystic fibrosis induced NFkb Inhibitors in a TNFa-induced IL8 counterscreen. Type of assay: functional. The settings on record: read-out: IC50_Mean.

For assay [8], the target named is T3, Interleukin-8. Briefly: Dose Response confirmation of uHTS small molecule hits for cystic fibrosis induced NFkb Inhibitors in a PAF-induced IL8 counterscreen. Type of assay: functional. The conditions noted are these: read-out: IC50_Mean.
For assay [9], the target named is T4, Tyrosine-protein phosphatase non-receptor type 22 (Homo sapiens, UniProt Q9Y2R2).
T4 sequence (Q9Y2R2 whole entry): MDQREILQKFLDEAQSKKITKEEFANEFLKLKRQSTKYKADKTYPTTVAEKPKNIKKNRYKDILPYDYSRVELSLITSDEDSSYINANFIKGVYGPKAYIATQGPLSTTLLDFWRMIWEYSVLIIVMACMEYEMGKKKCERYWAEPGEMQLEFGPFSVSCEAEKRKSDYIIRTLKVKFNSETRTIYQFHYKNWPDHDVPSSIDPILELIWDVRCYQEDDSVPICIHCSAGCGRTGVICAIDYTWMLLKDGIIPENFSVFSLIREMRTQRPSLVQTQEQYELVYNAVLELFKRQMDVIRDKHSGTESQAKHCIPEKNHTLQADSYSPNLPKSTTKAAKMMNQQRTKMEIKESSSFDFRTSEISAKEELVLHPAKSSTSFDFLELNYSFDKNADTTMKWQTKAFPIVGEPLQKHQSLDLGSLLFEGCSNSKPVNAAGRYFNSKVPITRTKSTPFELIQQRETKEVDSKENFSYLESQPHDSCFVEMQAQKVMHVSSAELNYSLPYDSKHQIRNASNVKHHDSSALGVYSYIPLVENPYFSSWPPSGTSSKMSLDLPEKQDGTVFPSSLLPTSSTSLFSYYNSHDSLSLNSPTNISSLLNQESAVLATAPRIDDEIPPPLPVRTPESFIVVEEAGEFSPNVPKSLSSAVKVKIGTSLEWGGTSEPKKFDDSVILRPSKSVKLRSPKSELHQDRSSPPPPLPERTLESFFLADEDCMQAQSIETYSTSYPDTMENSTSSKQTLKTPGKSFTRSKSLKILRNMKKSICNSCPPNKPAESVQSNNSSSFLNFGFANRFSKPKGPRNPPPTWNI
In words: lymphoid phosphatase LYP inhibitors – biochemical, selectivity assay for STEP inhibitor project, dose response (AID 624241). Type of assay: functional.

Assay [10] has as its target Dual specificity protein phosphatase 3 (Homo sapiens, UniProt P51452). In words: VHR phosphatase inhibition, dose response, selectivity assay for STEP inhibitor project, biochemical (AID 602374). The format is functional. The settings on record: read-out: IC50_Mean.
Assay [11] concerns the target T5, Low molecular weight phosphotyrosine protein phosphatase (Homo sapiens, UniProt P24666).
T5 sequence (P24666 whole entry): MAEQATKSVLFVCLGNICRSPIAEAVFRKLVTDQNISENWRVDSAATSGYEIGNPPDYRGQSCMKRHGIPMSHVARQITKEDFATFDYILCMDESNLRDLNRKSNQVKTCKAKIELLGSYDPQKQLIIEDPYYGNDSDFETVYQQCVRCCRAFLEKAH
The format is functional. The conditions noted are these: read-out: IC50_Mean.

In assay [12] the target is T5, Low molecular weight phosphotyrosine protein phosphatase. The format is functional. The conditions noted are these: read-out: IC50_Mean. The source holds these as a separate data set.
In assay [13] the target is Tyrosine-protein phosphatase non-receptor type 5 (Homo sapiens, UniProt P54829). Briefly: PTPN5 enzyme inhibition – biochemical, fluorescence intensity, uHTS hits, confirmation (AID 602372). The settings on record: read-out: IC50_Mean. Type of assay: functional.
In assay [14] the target is T4, Tyrosine-protein phosphatase non-receptor type 22. In words: PTPN22 enzyme inhibitors – biochemical, fluorescence, LYP catalytic domain, selectivity assay for LMPTP inhibitor project, dose response (AID 652006). The conditions noted are these: read-out: IC50_Mean. The format is functional.
The target in assay [15] is Tyrosine-protein phosphatase non-receptor type 11 (Homo sapiens, UniProt Q06124). In words: PTPN11 enzyme inhibitors – biochemical, selectivity assay for STEP inhibitor project, dose response (AID 602367). Type of assay: functional. The conditions noted are these: read-out: IC50_Mean.
Assay [16] addresses Platelet-activating factor acetylhydrolase (Mus musculus, UniProt Q60963). Briefly: Late stage assay provider results from the probe development effort to identify inhibitors of pPAFAH: fluorescence-based dose-response biochemical gel-based competitive Activity-Based Protein Profiling (ABPP) assay for SAR compounds. The format is functional.
In another assay the target is Protein Wnt-3a (Mus musculus, UniProt P27467). In words: SAR analysis of small molecule antagonists of Gli-SUFU in a Wnt3a luminescent reporter assay. Type of assay: functional.
Assay [17] can be described thus: anti-trypanosomal activity in BESM host cells – imaging, CA-I/72 strain, bovine embryo skeletal muscle, dry powder, dose response (AID 651885). Type of assay: functional, cell-based.

Molecules are shown by their SMILES. The source made the active and inactive calls. Where only a bound is given, the exact number is not on record here.

Sequence of Tyrosine-protein phosphatase non-receptor type 5 (P54829 whole entry, the tested form may be a part): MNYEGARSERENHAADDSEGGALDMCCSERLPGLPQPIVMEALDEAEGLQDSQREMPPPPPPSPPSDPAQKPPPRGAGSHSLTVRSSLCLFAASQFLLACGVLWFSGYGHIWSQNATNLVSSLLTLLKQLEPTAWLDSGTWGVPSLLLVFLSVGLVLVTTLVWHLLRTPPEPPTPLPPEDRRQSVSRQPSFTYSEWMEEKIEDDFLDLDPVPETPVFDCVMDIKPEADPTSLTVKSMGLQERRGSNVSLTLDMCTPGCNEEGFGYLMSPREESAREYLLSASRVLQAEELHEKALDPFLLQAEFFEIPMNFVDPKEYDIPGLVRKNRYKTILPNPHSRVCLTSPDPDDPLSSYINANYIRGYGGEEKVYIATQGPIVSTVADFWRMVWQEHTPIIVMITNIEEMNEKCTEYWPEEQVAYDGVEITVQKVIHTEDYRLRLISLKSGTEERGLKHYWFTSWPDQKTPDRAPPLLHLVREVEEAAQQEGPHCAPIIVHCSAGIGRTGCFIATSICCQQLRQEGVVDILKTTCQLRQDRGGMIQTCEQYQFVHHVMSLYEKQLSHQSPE
Sequence of 26S proteasome non-ATPase regulatory subunit 14 (O00487 whole entry): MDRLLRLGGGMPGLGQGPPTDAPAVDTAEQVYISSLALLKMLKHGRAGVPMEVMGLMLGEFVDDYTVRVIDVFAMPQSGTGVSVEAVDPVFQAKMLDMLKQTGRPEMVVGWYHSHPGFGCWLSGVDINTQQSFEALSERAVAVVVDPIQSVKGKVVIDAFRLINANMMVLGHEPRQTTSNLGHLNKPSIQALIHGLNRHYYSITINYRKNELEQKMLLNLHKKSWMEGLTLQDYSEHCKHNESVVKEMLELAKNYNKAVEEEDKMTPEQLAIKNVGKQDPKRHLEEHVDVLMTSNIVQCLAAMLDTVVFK
Sequence of Dual specificity protein phosphatase 3 (P51452 whole entry): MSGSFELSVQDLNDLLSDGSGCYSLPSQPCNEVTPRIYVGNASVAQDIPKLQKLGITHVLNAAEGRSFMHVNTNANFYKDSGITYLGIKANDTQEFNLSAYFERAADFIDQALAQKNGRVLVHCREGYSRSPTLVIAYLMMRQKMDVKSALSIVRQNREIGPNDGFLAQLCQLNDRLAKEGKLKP
Sequence of 72 kDa type IV collagenase (P08253 whole entry): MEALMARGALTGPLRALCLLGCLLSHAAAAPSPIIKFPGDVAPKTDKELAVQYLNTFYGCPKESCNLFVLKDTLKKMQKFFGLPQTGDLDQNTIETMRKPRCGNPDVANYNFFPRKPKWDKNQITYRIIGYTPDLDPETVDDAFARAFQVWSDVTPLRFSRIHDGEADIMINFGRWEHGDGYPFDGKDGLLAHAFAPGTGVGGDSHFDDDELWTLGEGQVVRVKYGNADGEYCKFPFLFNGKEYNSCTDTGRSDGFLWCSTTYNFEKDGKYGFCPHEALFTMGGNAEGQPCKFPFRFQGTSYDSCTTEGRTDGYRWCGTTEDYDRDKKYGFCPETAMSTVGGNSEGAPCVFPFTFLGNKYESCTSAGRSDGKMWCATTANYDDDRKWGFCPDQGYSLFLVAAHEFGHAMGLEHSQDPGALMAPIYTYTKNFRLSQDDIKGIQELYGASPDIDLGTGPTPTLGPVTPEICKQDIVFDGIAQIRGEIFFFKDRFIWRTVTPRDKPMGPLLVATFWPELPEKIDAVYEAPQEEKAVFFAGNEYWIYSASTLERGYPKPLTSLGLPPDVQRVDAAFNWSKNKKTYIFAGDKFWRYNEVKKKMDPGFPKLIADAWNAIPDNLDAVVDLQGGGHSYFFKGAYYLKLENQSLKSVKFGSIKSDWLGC
Sequence of Platelet-activating factor acetylhydrolase (Q60963 whole entry): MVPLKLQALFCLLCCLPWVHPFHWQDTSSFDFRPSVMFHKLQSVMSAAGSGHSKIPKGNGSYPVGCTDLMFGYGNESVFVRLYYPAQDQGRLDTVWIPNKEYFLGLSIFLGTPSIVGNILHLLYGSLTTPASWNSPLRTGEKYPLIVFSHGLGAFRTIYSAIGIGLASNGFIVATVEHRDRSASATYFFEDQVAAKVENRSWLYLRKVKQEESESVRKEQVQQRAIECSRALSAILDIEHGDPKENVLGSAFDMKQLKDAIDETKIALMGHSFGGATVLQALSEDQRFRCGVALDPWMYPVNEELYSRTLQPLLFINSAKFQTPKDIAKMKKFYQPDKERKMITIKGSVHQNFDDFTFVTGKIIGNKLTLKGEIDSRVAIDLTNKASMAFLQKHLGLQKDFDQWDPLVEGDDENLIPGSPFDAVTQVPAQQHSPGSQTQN
Sequence of Tyrosine-protein phosphatase non-receptor type 11 (Q06124 whole entry): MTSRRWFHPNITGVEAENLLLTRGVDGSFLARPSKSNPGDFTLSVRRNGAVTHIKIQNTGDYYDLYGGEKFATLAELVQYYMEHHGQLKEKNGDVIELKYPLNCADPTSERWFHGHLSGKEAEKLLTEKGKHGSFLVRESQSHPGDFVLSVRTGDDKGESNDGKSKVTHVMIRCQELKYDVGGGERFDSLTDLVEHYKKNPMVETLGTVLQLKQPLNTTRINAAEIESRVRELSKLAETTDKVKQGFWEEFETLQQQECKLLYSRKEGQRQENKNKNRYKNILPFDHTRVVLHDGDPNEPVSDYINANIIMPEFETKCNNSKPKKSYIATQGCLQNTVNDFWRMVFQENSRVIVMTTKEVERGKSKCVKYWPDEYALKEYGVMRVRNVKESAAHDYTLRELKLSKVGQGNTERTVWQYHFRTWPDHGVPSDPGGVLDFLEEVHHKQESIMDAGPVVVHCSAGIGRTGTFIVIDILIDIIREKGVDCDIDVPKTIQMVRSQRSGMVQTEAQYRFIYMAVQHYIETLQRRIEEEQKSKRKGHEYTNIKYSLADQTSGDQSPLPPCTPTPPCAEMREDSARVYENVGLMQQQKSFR
Sequence of Protein Wnt-3a (P27467 whole entry): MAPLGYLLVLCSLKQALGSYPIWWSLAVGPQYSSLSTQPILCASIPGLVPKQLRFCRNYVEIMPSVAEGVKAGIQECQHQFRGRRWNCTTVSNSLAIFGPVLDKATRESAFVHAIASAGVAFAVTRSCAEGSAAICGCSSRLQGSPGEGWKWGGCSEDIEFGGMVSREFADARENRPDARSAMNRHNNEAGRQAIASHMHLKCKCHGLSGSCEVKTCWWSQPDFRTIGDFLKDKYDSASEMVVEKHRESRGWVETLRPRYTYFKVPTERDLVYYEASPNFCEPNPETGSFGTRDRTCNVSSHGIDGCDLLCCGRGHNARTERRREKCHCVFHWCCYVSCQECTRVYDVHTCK

The AC50 is the concentration giving half of the maximal activity seen. For the molecule `O=C(COC(=O)c1ccc([N+](=O)[O-])o1)Nc1ccc(F)cc1`, the AC50 in assay [1] is 109 µM (active).
Regarding `COC(=O)c1c(NC(=O)c2ccc(S(=O)(=O)N3CC(C)OC(C)C3)cc2)sc2c1CCN(C)C2` (centres undefined), the IC50 in [2] is 29.5 µM (active); in assay [4], > 100 µM (inactive); at Prothrombin it was 37.4 µM (active). Further, the AC50 in assay [3] is 55.4 µM (active); in [5], 11.8 µM (active); in assay [6], 24.6 µM (active).
As to `Nc1nccc(SCc2ccc(Cl)cc2Cl)n1`, the results for the IC50 at Interleukin-8 [7] and on Interleukin-8 [8] were > 79 µM (inactive) and 6.67 µM (active), respectively.
Take `O=C(N/N=C/c1ccc(Br)s1)c1cccc([N+](=O)[O-])c1`: the IC50 in assay [9] was 64.9 µM (inactive); in assay [10] it was 3.4 µM (active); in assay [11], 9.56 µM (active); in [12], 9.2 µM (active); in assay [13], 7.95 µM (active); in assay [14], 18.2 µM (active). The IC50 in assay [15] is 2.15 µM (active).
As to `Cc1cc(N2CCN(C(=O)Oc3ccc(-c4ccccc4)cc3)CC2)c2ccccc2n1`, in assay [16], the IC50 was 0.091 µM (active).
In the case of `CC1CCN(c2cc(NC(=O)c3ccccc3)ncn2)CC1`, at Protein Wnt-3a, the IC50 is > 21.8 µM (inactive).
Take `CC(C)N1C[C@H](C)[C@@H](CN(C)C(=O)OC(C)(C)C)Oc2c(NC(=O)c3ccccn3)cccc2C1=O`: the IC50 in assay [17] is 10.3 µM (inconclusive).
